Literature values in patent publication US12403291B2, “Submucosal bioresorbable drug eluting platform” (Intersect ENT, Inc., priority 2019, dated 2025).

Conditions: MF per gram of tissue

C[C@@H]1C[C@H]2[C@@H]3CCC4=CC(=O)C=C[C@]4(C)[C@@]3(Cl)[C@@H](O)C[C@]2(C)[C@@]1(OC(=O)c1ccco1)C(=O)CCl [Mometasone furoate, mometasone furoate]
concentration level of therapeutic effectiveness: 0.1 µg/g
